Laboratory results: patent US8828993B2, “Psychotropic agents having glutamate NMDA activity” (Ramot At Tel-Aviv University Ltd., priority 2006, dated 2014)
“Also recorded” adds a separate entry of the source.

Columns and labels:
Format in all cases: in vivo
[1] = test system: amphetamine-induced hyperactivity in mice; assay: Amphetamine-induced hyperactivity and stereotypic behavior
Source text: The amphetamine-induced hyperactivity and motility is one of the most popular animal models for schizophrenia (Pouzet B, et al., Effects of the 5-HT(7) receptor antagonist SB-258741 in animal models for schizophrenia. Pharmacol Biochem Behav April; 71(4):655-665, 2002 and Geyer, et al., Animal behavior models of the mechanisms underlying antipsychotic atypicalicity, Progress in Neuro-Psychopharmacol & Biological Psychiatry, 27, 1071-79, 2003). Amphetamines are known to augment dopaminergic and noradrenergic neurotransmission by inducing catecholamine release and preventing catecholamine reuptake
The experiment was conducted with ICR male mice placed in individual barrels. […] The locomotor activity, number of rearings and head movements was recorded every 15 minutes for 2 h.
As stated above, the amphetamine-induced hyperactivity and motility is one of the most popular animal models for schizophrenia. The experiment was conducted with ICR male mice placed in individual barrels. Compound 1 (20 mg/kg) was administered p.o to the mice 1 hr prior to i.p. administration of amphetamine (2. mg/kg). The hyper-active behavior expressed by the number of climbings and rearings and the stereotypic behavior expressed by the number of head movements was recorded every 15 minutes over a period of 1 h.
The effect of Compound 3 (12.5, 25 and 50 mg/kg, i.p.) on amphetamine-induced hyperactivity in Balb/c mice was also examined. Animals (6 per group) were injected with Compound 3 (12.5, 25 and 50 mg/kg) and 30 minutes later received amphetamine (2 mg/kg ip). After 30 minutes, animals were exposed to an open field test for a period of 20 minutes.

[2] = test system: MK-801-induced hyperactivity in mice; assay: MK-801-induced hyperactivity in open field
Experimental: MK-801-Induced Stereotype Behavior in Rats (in Open Field)—
MK-801 is an analogue of PCP which inhibits NMDA receptors and elicits hyperlocomotion and stereotypic behavior in rodents and is used as an animal model of schizophrenia (Stephen, et al., Topiramate antagonizes MK-801 in an animal model of schizophrenia, Eur. J. Pharmacol. 449, 2002, 121-5). For experimentation, naïve Balb/c mice were used. MK-801 (0.15 mg/kg i.p) was administered 40 minutes after Compound 1 (or any one of the other compounds of the invention) or a vehicle, and 20 minutes prior to placing the mouse in an open field.
Animals placed in the open field were followed for 60 minutes and their distance moved, velocity, duration of immobility, and number of rearing events were registered using the Noldus system.
As stated above, MK-801 inhibits NMDA receptors and elicits hyperlocomotion. Therefore, where an antagonism of the hyperactivity-induced by the MK-801 is observed upon administration of a compound of the invention, it is an indication as to the positive modulation of the NMDA activity. In other words, such a compound may be considered as useful in the treatment of schizophrenia.
The effect of Compound 6 on the distance moved in Balb/c mice exposed to MK-801 ([…]) i.p. and to Compound 6 (up to 12.5 mg/kg, i.p.) administered 1 hr prior to MK-801 was also tested.
As stated above, MK-801 (an NMDA receptor antagonist) is a widely accepted animal model for schizophrenia. The experiment was conducted with Balb/c male mice (Harlan Il), 6 per group. Compound 1 (50 mg/kg) was administered i.p. (1 hr before experimentation), to mice alone or combined with MK-801 (0.15 mg/kg, i.p.) administered 20 minutes prior to placing the mice individually in an open field for 60 minutes. The hyper-active behavior expressed by hyperlocomotion, velocity, strong mobility, number of rearing was evaluated using the Noldus system, each point represents the mean+/−6 determinations.

mice [3] = assay: Open field exploratory locomotor activity
Source text: Open Field Exploratory Locomotor Activity
The procedure consists of subjecting an animal, usually a rodent, to an unknown large environment from which escape is prevented by surrounding walls. The open field test is now one of the most popular procedures in animal psychology (Crawley, et al., Exploratory behavior models of anxiety in mice, Neurosci Biobehav Rev 9 (1985), pp. 37-44). The procedure involves forced confrontation of a rodent with the situation. The animal is placed in the center or close to the walls of the apparatus and the following behavioral items are recorded for a period ranging from 5 to 20 minutes: horizontal locomotion, and frequency of rearing or leaning. In such a situation, rodents spontaneously prefer the periphery of the apparatus to activity in the central parts of the open field. Increase in time spent in the central part as well as of the ratio central/total locomotion or decrease of the latency to enter the central part are indications of anxiolysis.
In a typical test, an individual mouse was placed in a novel environment of a square open field (50×50 cm), the floor of which had been divided into 3 areas, as shown below. The area within 10 cm of the chamber walls was termed the periphery. […] One hour after drug administration, the animal was placed in the same corner of the field. The animal behavior in the open field was recorded by videotaping for 20-60 minutes and analyzed subsequently digitally using the Noldus software for animal behavior. The measurements included velocity, distance moved, frequency of visits to the central area, number of rearing events.
The effect of Compound 1 on the behavior of mice in the open field and the dose-dependent effect following i.p administration were evaluated. Naïve male Mice (Balb/c, Harlan Israel) were used. The animals, divided 3 to 5 animals per group, were administered with Compound 1 (12.5, 25, 50, 75 and 100 mg/kg) 1 hr prior to placing each in an open field. Mice were monitored for 1 hr (every 5 minutes) using the Noldus system, and their distance moved, velocity, time of immobility and number of rearings was recorded.
(§1) The effect of Compound 6 on the behavior of mice in the open field was also examined. Naïve male mice (Balb/c, Harlan Israel) were used. Animals (6 per group) were administered with Compound 6 (12.5, 25 and 50 mg/kg, i.p.) 1 hr prior to placing each in the open field. Mice were followed for 1 hr (every 5 minutes) using the Noldus system, and their distance moved, velocity, time of immobility and number of rearings was recorded.
The effect of oral administration of Compound 1 in the open field was tested by orally administering to male ICR mice varying amounts of Compound 1 (5, 10 and 20 mg/kg) or vehicle. Animals were placed in the open field 1 hr after drug administration and horizontal and vertical behavior was recorded for 20 minutes.
as §1, with “The dose-dependent” for “The”, “3 administered i.p.” for “6 on the behavior of mice”, “tested.” for “examined.”, “Animals” for “Animals (6 per group)”, “3” for “6”, “i.p., 6 per group)” for “i.p.)”
Animals were administered orally with Compound 1 (5, 10 and 20 mg/kg) or with a vehicle. Animals were placed in the open field 1 hr after drug administration and animal track was registered for 20 minutes. The time spent in the center (zone 3) and the frequency to the center were indicators of anxiety.

mice [4] = assay: Elevated plus maze; settings: male Balb/c mice, oral, diazepam 1 mg/kg
Source text: The elevated plus maze is a widely used method to test anxiety in rodents (Pellow, et al., Pharmacol. Biochem. Behav., 24, 525-529 (1986)). The apparatus was made of wood and painted black, with two opposing open arms and two opposite enclosed arms of the same size. The arms were attached to a central square shaped in a plus sign. The whole apparatus was placed 50 cm above the floor. Anxious animals refrain from entering the open arm and prefer the closed arm.
In a typical experiment, Balb/c male mice were administered orally with 10 and 20 mg/kg of Compound 1 or Compound 6 and with a vehicle or with diazepam (1 mg/kg) administered per os (p.o.) 90 minutes before they were placed in the center of the maze. The frequency to the open aims, the time spent in the different arms, the velocity and number of rearings of the animals in each zone were recorded (Noldus).
Male Balb/c mice were used. Animals were transferred to the behavior room 24 hr before the experiment. Compound 1 or diazepam were administered orally 90 minutes before testing. Each treatment group included 5 animals.
Male Balb/c mice were used. Animals were transferred to the behavior room 24 hr before the experiment. Compound 6 (3, 9, or 27 mg/kg) or vehicle were administered orally 90 minutes before testing. Each treatment group included 5 animals.

mice [5] = assay: Forced swim test (FST); settings: male ICR mice, 20 mg/kg oral
Source text: This is one of the most widely used tools for screening antidepressant activity pre-clinically in acute treatment. The test was first described by Porsolt et al., (Behavioral despair in mice: a primary screening test for antidepressants. Arch. Int. Pharmacodyn. Ther. 229, pp. 327-336, 1977). The FST test is based on the observation that rats and mice develop an immobile posture when placed in an inescapable cylinder of water. This behavior is considered a behavioral despair as opposed to active form of coping with stressful conditions. The FST test is considered a good screening tool with good reliability and predictive validity.
Three parameters were defined in the evaluation of FST:
1. Immobility—defined in the traditional Porsolt test as when no additional activity is observed other than that required to keep the animal's head above water;
2. Swimming behavior—being the movement (usually horizontal) throughout the chamber that also includes crossing into another quadrant;
3. Climbing behavior—being defined as the upward-directed movements (vertical) of the forepaws along the side of the swim chamber.
The test in mice was conducted acutely (60-90 minutes post oral drug administration) and animals were dropped to the cylinder for 6 minutes and scoring was performed in the last 4 minutes after 2 minutes of adaptation.
Round glass cylinders, 18 cm in diameter and 20 cm deep were used. Water temperature was 24-28° C. Four parameters were taken: immobility, velocity, distance and strong mobility. The immobility in the animals was defined by activity lower than 10% movement of the center of gravity of the animal. Swimming was defined by the distance and the velocity of the animal, and climbing was related to strong mobility (movement of center of gravidance more than 30%).
Males Balb/c mice (Harlan Israel) were used. Animals were administered orally with Compound 1 (10 or 20 mg/kg) or with a vehicle.
Males ICR mice were used.

[6] = Balb/c mice, 12.5, 25 and 50 mg/kg i.p.

COC(=O)C(N)COCN1CCN(C2=Nc3ccccc3Nc3sc(C)cc32)CC1 (stereo not shown) [Compound 3]
distance moved, combined with amphetamine ([1]; Balb/c mice, 12.5 mg/kg i.p.): normalization
distance moved, combined with amphetamine ([1]; Balb/c mice, 12.5, 25 and 50 mg/kg i.p. at -60 minutes): dose-dependent decrease
immobility, combined with amphetamine ([1]; Balb/c mice, 12.5, 25 and 50 mg/kg i.p., amphetamine 2 mg/kg ip): dose-dependently increased
effect of amphetamine (hypermotility) ([1]; Balb/c mice, 12.5, 25 and 50 mg/kg i.p., amphetamine 2 mg/kg ip 30 minutes later, open field 20 minutes): dose-dependently antagonized
hyperactivity ensued by amphetamine ([1]; Balb/c mice, already at 12.5 mg/kg i.p., 12.5 mg/kg): effective; also recorded: antagonized
distance moved, combined with amphetamine ([1]; Balb/c mice, doses higher than 12.5 mg/kg i.p.): marked decrease
MK-801-induced hyperactivity ([2]; Balb/c mice, 7.5 mg/kg): slight effect
MK-801-induced hyperactivity ([2]; Balb/c mice, 25 mg/kg): normalization of activity
MK-801-induced hyperactivity ([2]; Balb/c mice, 50 mg/kg): sedation
MK-801-induced hyperactivity (distance moved) ([2]; Balb/c mice, 12.5, 25 and 50 mg/kg i.p., MK-801 0.15 mg/kg i.p.): dose dependent decrease
immobility (“not moving” total duration), MK-801 treated ([2]; Balb/c mice, high dose): appeared
frequency to the center of the field, MK-801 treated ([2]; Balb/c mice, low dose): tended to increase
time spent in the center, MK-801 treated ([2]; Balb/c mice, low dose): tended to increase
immobility (“not moving” total duration), MK-801 treated ([2]; Balb/c mice, small and intermediate doses (25 mg/kg)): not found
motility parameters (mice [3]; Balb/c mice, 50 mg/kg i.p.): marked decrease
duration of “not moving” periods (mice [3]; [6]): dose dependently increased
number of rearings vs. controls (mice [3]; [6]): decreased
motility (distance moved and velocity) (mice [3]; Balb/c mice, up to 25 mg/kg i.p.): mild decrease

CN1C(=O)CN=C(c2ccccc2)c2cc(Cl)ccc21 [diazepam, reference compound]
number of rearings in the center (mice [4]): significantly increased
number of rearings in the open arm (mice [4]): increased number of rearings
velocity (mice [4]): higher

Cc1cc2c(s1)Nc1ccccc1N=C2N1CCN(C)CC1 [olanzapine, reference compound]
distance moved (mice [5]): significantly decreased
immobility (mice [5]): increased
strong mobility (climbing) (mice [5]): significantly decreased
velocity (mice [5]): significantly decreased
